These results are taken from ChEMBL document CHEMBL2034963, “Synthesis and pharmacological assessment of diversely substituted pyrazolo[3,4-b]quinoline, and benzo[b]pyrazolo[4,3-g][1,8]naphthyridine derivatives” (Eur J Med Chem, 2011).

SMILES strings stand for the structures. Calls of active or inactive are those of the source. The rule behind the calls is not given here.

Assay [1] deals with T1, Acetylcholinesterase (Electrophorus electricus, UniProt O42275). Briefly: Mixed type inhibition of electric eel AChE using acetylthiocholine as substrate by Lineweaver-Burk plot analysis.
The subject of assay [2] is SH-SY5Y. Briefly: Neuroprotective activity in rotenone/oligomycin-induced cell death in human SH-SY5Y cells assessed as LDH release at 1 uM pretreated for 1 hr before rotenone/oligomycin challenge measured after 24 hrs by spectrophotometric method (reference value: 13 %). The assay is classed as functional.
The subject of assay [3] is SH-SY5Y. Briefly: Neuroprotective activity in okadaic acid-induced cell death in human SH-SY5Y cells at 1 uM after 24 hrs by MTT method. The assay is classed as functional, cell-based.
For assay [4], the target named is T1, Acetylcholinesterase.
Description: Inhibition of electric eel AChE preincubated for 10 mins measured after 15 mins by Ellman's method
For another assay, the target named is Cholinesterase (Equus caballus, UniProt P81908).
Assay [5] relates to SH-SY5Y. Briefly: Neuroprotective activity in rotenone/oligomycin-induced cell death in human SH-SY5Y cells assessed as LDH release at 10 nM pretreated for 1 hr before rotenone/oligomycin challenge measured after 24 hrs by spectrophotometric method (reference value: 13 %). The assay is classed as functional.

T1 sequence (O42275 whole entry): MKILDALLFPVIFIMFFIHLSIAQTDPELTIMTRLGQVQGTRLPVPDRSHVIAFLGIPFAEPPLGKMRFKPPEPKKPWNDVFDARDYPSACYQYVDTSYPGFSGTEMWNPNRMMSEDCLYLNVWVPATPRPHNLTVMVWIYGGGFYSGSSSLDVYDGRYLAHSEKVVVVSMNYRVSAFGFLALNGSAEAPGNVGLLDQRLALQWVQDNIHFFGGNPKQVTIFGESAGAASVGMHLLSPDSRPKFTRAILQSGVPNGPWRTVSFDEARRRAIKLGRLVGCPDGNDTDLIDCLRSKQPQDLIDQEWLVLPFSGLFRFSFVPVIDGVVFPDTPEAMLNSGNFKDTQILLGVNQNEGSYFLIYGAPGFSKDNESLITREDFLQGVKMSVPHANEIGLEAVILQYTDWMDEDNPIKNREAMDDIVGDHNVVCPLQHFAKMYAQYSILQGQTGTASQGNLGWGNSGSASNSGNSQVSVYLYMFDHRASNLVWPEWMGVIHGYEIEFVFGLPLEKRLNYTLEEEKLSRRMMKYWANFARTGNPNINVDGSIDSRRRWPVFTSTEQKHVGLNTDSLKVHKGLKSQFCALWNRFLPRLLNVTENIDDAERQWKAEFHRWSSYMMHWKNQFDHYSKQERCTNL
Sequence of Cholinesterase (P81908 whole entry): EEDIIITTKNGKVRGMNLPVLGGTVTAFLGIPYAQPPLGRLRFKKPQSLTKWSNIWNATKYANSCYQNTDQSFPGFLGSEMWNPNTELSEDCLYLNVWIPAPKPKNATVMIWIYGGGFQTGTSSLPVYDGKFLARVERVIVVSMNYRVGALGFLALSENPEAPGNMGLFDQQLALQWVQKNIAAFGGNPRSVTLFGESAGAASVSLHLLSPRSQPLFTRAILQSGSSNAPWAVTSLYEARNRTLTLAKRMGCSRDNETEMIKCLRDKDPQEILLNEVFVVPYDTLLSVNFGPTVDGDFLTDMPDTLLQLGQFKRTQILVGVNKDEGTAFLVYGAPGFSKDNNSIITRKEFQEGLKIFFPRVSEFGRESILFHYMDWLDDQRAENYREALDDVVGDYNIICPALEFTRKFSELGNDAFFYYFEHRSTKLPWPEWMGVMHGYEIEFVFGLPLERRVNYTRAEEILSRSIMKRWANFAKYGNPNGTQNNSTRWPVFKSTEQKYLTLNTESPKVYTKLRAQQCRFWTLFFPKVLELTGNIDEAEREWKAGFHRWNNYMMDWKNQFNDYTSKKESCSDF

`CC(=O)Nc1nn(C)c2nc3nc4c(c(N)c3cc12)CCCC4` yielded a Ki at Acetylcholinesterase [1] of 0.155 µM. For the same compound, the Activity with SH-SY5Y [2] came out at 48%. Also, the result in the assay with SH-SY5Y [3] was inactive. For the same compound, the IC50 at Acetylcholinesterase [4] was 0.069 µM; at Cholinesterase, 6.3 µM.

On to `Cn1nc(C#N)c2c(N)c3c(nc21)CCCC3`, for which the values for the half-maximal inhibitory concentration (IC50) against Acetylcholinesterase [4] and on Cholinesterase were 1.7 µM and 6.3 µM, respectively.

As to `Cn1nc(C(N)=O)c2c(NCCCCCCOc3ccccc3)c3c(nc21)CCCC3`, the half-inhibitory concentration (IC50) against Acetylcholinesterase [4] was 9.3 µM; against Cholinesterase, over 100 µM.

`Cn1nc2nc3c(c(N)c2c1C(N)=O)CCCC3`: the IC50 at Acetylcholinesterase [4] was found to be 0.6 µM; on Cholinesterase it was 5.4 µM.

Turning to `Cn1nc2nc3c(c(N)c2c1C#N)CCCC3`, the 50% inhibitory concentration (IC50) against Acetylcholinesterase [4] came out at 0.57 µM; at Cholinesterase, 100 µM.

As to `CC(=O)Nc1nn(C)c2nc3nc4c(c(N)c3c(-c3ccccc3)c12)CCCC4`, the IC50 came out at 0.23 µM on Acetylcholinesterase [4] and 9 µM against Cholinesterase.

Turning to `COc1ccc2[nH]cc(CCNC(C)=O)c2c1` [MELATONIN], in the assay on SH-SY5Y [5], the Activity turned out to be 48%.
